Source: patent US20100203159A1, “METAL COMPONENT […] IN PLANT” (COSMO OIL CO., LTD., priority 2007, published 2010)

Legend:
barley [1] = assay: Metal absorption-enhancing effect in barley hydroponics (water culture medium A), ICP metal analysis; type: in vivo, Barley (race: Fiber snow); details: for calcium content-enhancing effect in barley: FIG. 1; for zinc content-enhancing effect in barley: FIG. 5; for copper content-enhancing effect in barley: FIG. 4; for manganese content-enhancing effect in barley: FIG. 2; for iron content-enhancing effect in barley: FIG. 3
Experimental: Barley (race: Fiber snow) was seeded on river sand, sprouted, and grown for 9 days. After the growth, the sand was washed out with caring so as not to hurt roots and the roots were cut so as to adjust the length to 2 cm. The roots were immersed in a water culture medium A and hydroponics was performed.
As water culture media, one in which no 5-aminolevulinic acid was dissolved and those in which the compound was dissolved so that each one has a concentration of 0.1, 0.3, or 1 ppm were prepared. The water culture medium was replaced 13 days after the start of the hydroponics, and hydroponics was continued for another 6 days. After the hydroponics, the plant was dried at 50° C. for two nights and then was subjected to ICP metal analysis.
Similar operations were performed as in Example 6 except that the concentration of the added 5-aminolevulinic acid was adjusted to 0, 0.3, or 1 ppm and the manganese concentration in barley was analyzed.
Similar operations were performed as in Example 6 except that the composition of the water culture medium was changed to twofold concentration of the water culture medium A and the concentration of the added 5-aminolevulinic acid was adjusted to 0, 1, or 3 ppm, and then the iron concentration in barley was analyzed.
Similar operations were performed as in Example 6 except that the water culture medium A and a water culture medium having a composition which was twice the composition of the water culture medium A were used and the concentration of the added 5-aminolevulinic acid was adjusted to 0, 0.1, or 0.3 ppm, and then the copper concentration in barley was analyzed. The results are shown in FIG. 4 (left one in the figure is for the water culture medium A and right one is for twofold concentration of the water culture medium A).
Similar operations were performed as in Example 6 except that the concentration of the added 5-aminolevulinic acid was adjusted to 0, 0.1, or 0.3 ppm, and the zinc concentration in barley was analyzed.
Similar operations were performed as in Example 6 except that the concentration of the added 5-aminolevulinic acid was adjusted to 0, 0.1, 0.3, 1, or 3 ppm, and the manganese concentration in barley was analyzed.
Similar operations were performed as in Example 6 except that the concentration of the added 5-aminolevulinic acid was adjusted to 0 or 30 ppm, and the calcium concentration in barley was analyzed.
Similar operations were performed as in Example 6 except that the concentration of the added 5-aminolevulinic acid was adjusted to 0 or 30 ppm, and the manganese concentration in barley was analyzed.
Similar operations were performed as in Example 6 except that the concentration of the added 5-aminolevulinic acid was adjusted to 0 or 30 ppm and the iron concentration in barley was analyzed.
Similar operations were performed as in Example 6 except that the concentration of the added 5-aminolevulinic acid was adjusted to 0 or 30 ppm, and the copper concentration in barley was analyzed.
Similar operations were performed as in Example 6 except that the concentration of the added 5-aminolevulinic acid was adjusted to 0 or 30 ppm, and the zinc concentration in barley was analyzed.
Similar operations were performed as in Example 6 except that the concentration of the added 5-aminolevulinic acid was adjusted to 0 or 30 ppm and the magnesium concentration in barley was analyzed.

radish = assay: Metal absorption-enhancing effect in radish by foliage treatment, metal analysis; type: in vivo; details: foliage treatment 1 or 10 ppm, 100 L per 10 are, together with DTPA iron and magnesium sulfate, harvest 25th day
Description: Radish was sowed in a pot of 1/57000×10 are in an amount of 6 seeds per pot and grown. An andosol (Kuroboku-soil) was used as soil and watering was suitably performed. On 11th day after the seeding (a two true leaves-developed stage), a solution containing 5-aminolevulinic acid hydrochloride prepared to a concentration of 0, 1, or 10 ppm in a developing agent-diluted (2000 times) liquid was applied to foliage treatment. Moreover, on this occasion, DTPA iron and magnesium sulfate were transformed into solutions having a concentration of 1.8 and 4.5 ppm in terms of Fe and MgO, respectively, and were applied to foliage treatment together with 5-aminolevulinic acid hydrochloride. The amount used for the treatment was 100 L per 10 are. The number of pots was 5 pots per test plot. On 15th day and 20th day after the seeding, thinning was performed and the number of plants per pot was adjusted to 4 individuals. On 25th day after the seeding, the plants were harvested and completely dried at 50° C. for two nights. Thereafter, they are pulverized and mixed in a mixer and then IPC metal analysis was performed.
Similar operations were performed as in Example and the zinc concentration in radish was analyzed.

spinach = assay: Metal absorption-enhancing effect in spinach by daily spraying, metal content in dry weight by ICP; type: in vivo
Experimental: Two containers were provided and soil was placed in each of them, in which seeds of spinach were uniformly planted. From the day when the seeds were planted, water was applied once a day by means of a sprinkling can. To one of the container, tap water in which 5-aminolevulinic acid hydrochloride was dissolved in a concentration of 1 ppm was sprayed once a day in an amount of about 50 mL by means of a sprayer. Thinning was performed 3 weeks after the seed planting, and harvest was performed on the two containers after 38 days. At the harvest, the upper portions from the ground were cut out and the plant bodies were subjected to natural drying. After drying, the plant bodies was ground one by one in a mortar, the calcium content in dry weight was measured by ICP, and the concentration was calculated.
Similar operations were performed as in Example 1 and the manganese concentration in spinach was calculated.
Similar operations were performed as in Example 1 and the iron concentration in spinach was calculated.
Similar operations were performed as in Example 1 and the copper concentration in spinach was calculated.
Similar operations were performed as in Example 1 and the zinc concentration in spinach was calculated.

potato = assay: Metal absorption-enhancing effect in potato tubers by foliage treatment, metal analysis; type: in vivo; details: foliage treatment 1 ppm, from 30th day, then 8 times every other week, tubers harvested 105th day
Experimental: A seed tuber of potato was subjected to light-exposure and sprout-growth to stimulate germination. The germinated potato was planted in a pot of 1/20000×10 are in an amount of 1 tuber per pot. On 30th day after the planting (height of terrestrial portion: about 30 cm), 5-Aminolevulinic Acid hydrochloride was dissolved in a developing agent-diluted (2000 times) liquid in a concentration of 0 or 1 ppm and was applied to foliage treatment. Thereafter, the foliage treatment was performed 8 times every other week. The number of pots was 3 pots per test plot and new sprouts were removed while a strong thick sprout was left so that the number of sprout per pot was 1. On 105th day after the planting, potato as tubers was harvested and the tubers were selected from each test plot so that the total weight was 120±10 g. Then, they were pared and completely dried at 50° C. for two nights. Thereafter, they are pulverized and mixed in a mixer and then […] metal analysis was performed.
Similar operations were performed as in Example 14 and the magnesium concentration in potato was analyzed.

barley [2] = assay: Metal absorption-enhancing effect in barley hydroponics (water culture medium A), ICP metal analysis; type: in vivo, Barley (race: Fiber snow); details: 0.1, 0.3, 1, or 3 ppm in water culture medium A; FIG. 6

## Cl.NCC(=O)CCC(=O)O [5-aminolevulinic acid hydrochloride]
Barley [1]; 0.1, 0.3, or 1 ppm in water culture medium A
  calcium content-enhancing effect in barley: calcium content-enhancing effect was observed
Barley [1]; 0.1 or 0.3 ppm in water culture medium A
  zinc content-enhancing effect in barley: zinc content-enhancing effect was observed
Barley [1]; 0.1 or 0.3 ppm, water culture medium A and twofold concentration of medium A
  copper content-enhancing effect in barley: copper content-enhancing effect was observed
Barley [1]; 0.3 or 1 ppm in water culture medium A
  manganese content-enhancing effect in barley: manganese content-enhancing effect was observed
Barley [1]; 1 or 3 ppm, twofold concentration of water culture medium A
  iron content-enhancing effect in barley: iron content-enhancing effect was observed
Barley [1]; 30 ppm in water culture medium, Comparative Example 1
  calcium content-enhancing effect in barley: calcium content-enhancing effect was not observed
Barley [1]; 30 ppm in water culture medium, Comparative Example 2
  manganese content-enhancing effect in barley: manganese content-enhancing effect was not observed
Barley [1]; 30 ppm in water culture medium, Comparative Example 3
  iron content-enhancing effect in barley: iron content-enhancing effect was not observed
Barley [1]; 30 ppm in water culture medium, Comparative Example 4
  copper content-enhancing effect in barley: copper content-enhancing effect was not observed
Barley [1]; 30 ppm in water culture medium, Comparative Example 5
  zinc content-enhancing effect in barley: zinc content-enhancing effect was not observed
Barley [1]; 30 ppm in water culture medium, Comparative Example 6, FIG. 6
  magnesium content-enhancing effect in barley: magnesium content-enhancing effect was not observed
radish; FIG. 7
  manganese content-enhancing effect in radish: manganese content-enhancing effect was observed
radish; FIG. 8
  zinc content-enhancing effect in radish: zinc content-enhancing effect was observed
spinach; 1 ppm in tap water sprayed once a day, about 50 mL, harvest after 38 days, dry weight, n = 18, no-ALA control 0.61
  Average value of calcium concentration in spinach: 0.68%
spinach; 1 ppm sprayed once a day, harvest after 38 days, dry weight, n = 18, no-ALA control 0.015
  Average value of iron concentration in spinach: 0.049%
spinach; 1 ppm sprayed once a day, harvest after 38 days, dry weight, n = 18, no-ALA control 0.023
  Average value of copper concentration in spinach: 0.029%
spinach; 1 ppm sprayed once a day, harvest after 38 days, dry weight, n = 18, no-ALA control 0.027
  Average value of manganese concentration in spinach: 0.031%
spinach; 1 ppm sprayed once a day, harvest after 38 days, dry weight, n = 18, no-ALA control 0.033
  Average value of zinc concentration in spinach: 0.048%
spinach; spraying, 1 ppm once a day
  calcium content-enhancing effect in spinach: calcium content-enhancing effect was observed
  copper content-enhancing effect in spinach: copper content-enhancing effect was observed
  iron content-enhancing effect in spinach: iron content-enhancing effect was observed
  manganese content-enhancing effect in spinach: manganese content-enhancing effect was observed
  zinc content-enhancing effect in spinach: zinc content-enhancing effect was observed
potato; FIG. 9
  iron content-enhancing effect in potato: iron content-enhancing effect was observed
potato; FIG. 10
  magnesium content-enhancing effect in potato: magnesium content-enhancing effect was observed
Barley [2]
  magnesium content-enhancing effect in barley: magnesium content-enhancing effect was observed
